In assay [1] the target is AR of rat ventral prostate. The following applies: read-out: binding constant reported previously, Schilling, et al.; cited from earlier work.
The test system of the next assay is hAR in NIH 3T3 cells. The following applies: 6 of about 100 individual cell lines. The source says: The expression of cloned AR-genes was achieved as follows in a eukaryotic system. NIH 3T3 cells, contact-inhibited cells established from NIH Swiss mouse embryo, were co-transfected with hAR cDNA inserted into pBPVMTH vectors as described by Gorman, "DNA Cloning", 2:143-190 D. M. Glover, ed.; (Oxford, Washington, D.C. 1985). Transfected cells were cloned and grown in multiple-well cell culture plates. About 100 individual cell lines were isolated.

In the next assay the test system is AR. The following applies: Liao, et al. (1973); cited from earlier work.
The target in another assay is T1, 79 kD hAR protein (Homo sapiens, UniProt P10275).
T1 construct: T7 transcript translated in rabbit reticulocyte lysate; untagged
T1 sequence (P10275 191-920): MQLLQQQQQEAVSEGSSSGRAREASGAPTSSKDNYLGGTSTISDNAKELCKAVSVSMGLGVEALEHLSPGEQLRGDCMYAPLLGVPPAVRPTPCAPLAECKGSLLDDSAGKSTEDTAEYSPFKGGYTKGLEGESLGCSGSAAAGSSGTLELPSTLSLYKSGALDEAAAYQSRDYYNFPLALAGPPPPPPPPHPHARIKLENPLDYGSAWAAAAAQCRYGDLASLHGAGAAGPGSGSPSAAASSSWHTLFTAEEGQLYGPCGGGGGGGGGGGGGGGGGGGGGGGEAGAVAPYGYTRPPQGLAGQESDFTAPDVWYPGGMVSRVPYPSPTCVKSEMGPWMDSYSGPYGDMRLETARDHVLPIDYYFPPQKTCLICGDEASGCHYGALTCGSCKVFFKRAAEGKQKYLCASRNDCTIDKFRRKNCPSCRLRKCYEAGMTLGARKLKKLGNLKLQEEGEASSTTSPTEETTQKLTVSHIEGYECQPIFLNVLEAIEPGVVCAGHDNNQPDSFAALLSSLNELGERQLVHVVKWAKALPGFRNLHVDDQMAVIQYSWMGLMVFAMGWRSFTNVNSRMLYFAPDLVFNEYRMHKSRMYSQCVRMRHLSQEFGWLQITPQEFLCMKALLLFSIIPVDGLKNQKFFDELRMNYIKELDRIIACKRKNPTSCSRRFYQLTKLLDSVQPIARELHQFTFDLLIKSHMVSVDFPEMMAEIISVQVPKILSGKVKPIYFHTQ
The experiment in a line: competition of non-radioactive steroids with [^3 H] R1881 binding to hAR made in reticulocyte lysate (hydroxylapatite-filter method).

The next assay deals with human androgen receptor. The following applies: Govindan, et al.; cited from earlier work.
The test system of the next assay is AR mRNA. As to the kind of experiment: AR mRNA level in ventral prostate of castrated rats (RNA dot hybridization and Northern blot). The assay is classed as in vivo. To be noted: 5 mg/rat/day. The method, then:
(§1) Because rat ventral prostate is an androgen-sensitive organ and contains the greatest amount of AR and TR2 mRNA, the effect of androgen depletion and replacement on the mRNA levels was studied by RNA dot hybridization and Northern blot analysis. […] Urol., 10:123 (1972)], was injected into normal rats for from 2 to 6 days. TR2 mRNA levels were then measured by dot hybridization as described above.

The subject of a further assay is TR2 mRNA. As to the kind of experiment: TR2 mRNA level in rat ventral prostate (RNA dot hybridization and Northern blot). The assay is classed as in vivo. The method, then:
as §1

A further assay has as its system ventral prostate. To be noted: castrated rats; Neri, et al.; cited from earlier work.

With `C[C@]1(O)CC[C@H]2[C@@H]3CCC4=CC(=O)CCC4=C3C=C[C@@]21C` [[^3 H] R1881, 17α[^3 H]-methyl-17β-hydroxy-estra-4,9,11-trien-3-one], in assay [1], the Kd is 0.65 nM. In the assay with hAR in NIH 3T3 cells, the “[^3 H] R1881-binding activity relative to cells transfected with pSV2 vector alone” value was “at least 4 fold”.
On to `C[C@]1(O)CC[C@H]2[C@@H]3CCC4=CC(=O)CCC4=C3C=C[C@@]21C` [R1881, 17α-methyl-17β-hydroxy-estra-4,9,11-trien-3-one], for which the “AR binding affinity (in words)” value in the assay on AR is given as “binds AR with high affinity”. Further, on 79 kD hAR protein (reticulocyte lysate har, 0.05 µM), the “[^3 H] R1881-bound (% of control)” value is on record as 10 % of control.
As to `C[C@]12CCC(=O)C=C1CC[C@@H]1[C@@H]2[C@@H](O)C[C@@]2(C)[C@H]1CC[C@]2(O)C(=O)CO` [Hydrocortisone], the “competition with [^3 H] R1881 binding (in words)” value on 79 kD hAR protein (79 kD protein, reticulocyte lysate) is listed as “did not compete well”. Further, on 79 kD hAR protein (read-out: [^3 H] R1881-bound (% of control)), the remaining activity at 0.05 µM amounted to 90%.
Consider `C[C@]12CCC(=O)C[C@@H]1CC[C@@H]1[C@@H]2CC[C@]2(C)[C@@H](O)CC[C@@H]12` [DHT, dihydrotestosterone], for which the “binding of tritium-labelled DHT (in words)” value in the assay with human androgen receptor is “with high affinity and specificity”.
Consider `C[C@]12CCC(=O)C[C@@H]1CC[C@@H]1[C@@H]2CC[C@]2(C)[C@@H](O)CC[C@@H]12` [5α-dihydrotestosterone, 17β-hydroxy-5α-androstan-3-one], for which the “AR mRNA level” value in the assay with AR mRNA is listed as “reduced the AR mRNA level to that of normal rats”. The “TR2 mRNA level” value in the assay on TR2 mRNA (castrated rats, injection, 5 mg/rat/day) is listed as “reduced the TR2 mRNA to the levels of normal rats”.
`CC(C)C(=O)Nc1ccc([N+](=O)[O-])c(C(F)(F)F)c1` [Flutamide]: in the assay with TR2 mRNA (normal rats, injected for from 2 to 6 days), the “TR2 mRNA level” value was “increased TR2 mRNA levels”. The “effect on 5α-dihydrotestosterone action on ventral prostate weights” value in the assay on ventral prostate is “antagonizes the effects of 5α-dihydrotestosterone on the ventral prostate weights in castrated rats”.

The values above are taken from patent publication US5614620A, “DNA binding proteins including androgen receptor” (Arch Development Corporation, priority 1993, dated 1997).
